From patent US6660910B1, “Selection marker” (Syngenta Mogen B.V., priority 1997, dated 2003)

Columns and labels:
[1] = system: stem segments of Solanum tuberosum cv. Kardal; assay: Transformation of potato stem segments with selection on cyanamide or kanamycin; assay type: cell-based
Description: Described below is the method used for transformation of stem segments of Solanum tuberosum cv. Kardal using Agrobacterium tumefaciens. Nodal explants from in vitro grown potato plants were used 3 to 8 weeks after transfer. The plants were grown on Multiplication Medium (MUM) under a 16 h light period (1700 lux) at 24° C. and a 8 h dark period at 21° C. (The various media can be found in Table 2). Stem segments of approximately 5 mm were cut on sterile filter paper soaked with Washing Medium (WAM) and collected in a flask containing Washing Medium. For approximately 300 explants the Washing Medium was replaced by Pre cultivation Medium (PRM). The flasks were cultured at 80 rpm at the same culture conditions as described above for approximately 24 h. All binary vectors used in this study contained the nptII gene as a plant selectable marker and the nptIII as bacterial selectable marker. Plasmid pMOG410 additionally harbored a chimeric gus gene containing an intron (Vancanneyt et al. Mol. Gen. Genet., 220, 245-250, 1990). Plasmid pMOG1156 additionally harbored the gus gene and the chimeric cah gene encoding cyanamide hydratase. Plasmid pMOG874 additionally harbored the cah gene. Plasmids were maintained in E.coli and A. tumefaciens under kanamycin selection.
The Agrobacterium strain used in this study harbored a rifampicin selection marker in a C58 chromosomal background. The construction of the helper strain EHA105 is described by Hood et al. (1993), Transg. Res. 2, 208-218.
Agrobacteria were grown overnight in LB medium with antibiotics (rifampicin 20 mg/l, kanamycin 100 mg/l). The overnight culture was diluted to OD600=0.1 and grown to OD600=0.3 in LB without antibiotics in approximately 2 h time. Bacterial suspensions were centrifuged at 1600×g for 15 minutes at room temperature. Bacteria were resuspended in Washing Medium and used for cocultivation experiments. The Pre cultivation Medium was removed from the flasks and replaced by the Agrobacterium suspension. The flasks were incubated for 20 minutes after which the explants were rinsed twice with Washing Medium. The explants were dried on sterile filter paper and incubated for 48 h on plates containing Cocultivation Medium (COM). Then, the explants were transferred to Post cultivation Medium (POM) and incubated for 72 h. The explants were then transferred to Shoot inducing Medium (SIM) containing several concentrations cyanamide or kanamycin. After two weeks the explants were subcultured on the same medium and approximately three weeks later the explants were placed on Shoot elongation Medium (SEM) containing cyanamide or kanamycin as mentioned above. When shoots were large enough to cut they were transferred to Root inducing Medium (RIM). Shoots that were able to root were then transferred to Root inducing Medium containing 50 mg/l cyanamide or 30 mg/l kanamycin. Simultaneously the transgenic nature of the shoots was determined by testing leaflets of the rooted shoots for expression of the gus gene using a histochemical GUS assay. It appeared that for pMOG1156 rooting of transgenic shoots on medium containing cyanamide was completely correlated with expression of the gus gene.

[2] = system: regenerable embryogenic suspension of Grand nain; assay: Kill curves in banana (Musa); assay type: cell-based; settings: for % Live cells as assessed by FDA: 21 days; for % Callus Growth: approximate visual estimate
Description: To test the potential of cyanamide as a selection agent for transformation in banana two kill curves were set up with a regenerable embryogenic suspension of Grand nain 6 day old embryogenic suspension (Ed6b) cultures, subbed routinely in M2 2,4D liquid, containing 4.32 g/l MS salts, 45 g/l sucrose, standard 1×concn. MS vitamins, 100mg/l glutamine, 100 mg/l myo-inositol, 100 mg/l biotin, 100mg/l malt extract at pH 5.3 and added after autoclaving 1.2 mg/l 2,4-D and 0.8 mg/l picloram.
Cultures were sieved (>250μ, <710μ) and aliquots of approx 50 μl sieved culture in 300μl volume of liquid were pipetted onto two kill curve media as detailed below (3 reps per plate). Culture growth and survival were monitored over the following 3 weeks and cell survival assessed after 21 days via FDA staining.
Kill Curve Medium A : M2/MS/1.0 2,4-D (as M2/MS/2,4-D except only 1.0 mg/l 2,4-D, no picloram and +2.25 g/l gelrite): this medium promotes the rapid division and growth of embryogenic callus, but not embryos. Kill Curve Medium B : M2/SH/0.5Pic, 0.5 2,4-D (as M2/MS/2,4-D except only 0.5 mg/l 2,4-D and 0.5 mg/l picloram, SH salts (4.32 g/1) instead of MS, +2.25 g/l gelrite): This medium promotes the early development of embryos which can be matured and germinated by transfer to alternative media.
Cyanamide was added to both media types, after autoclaving, to concentrations of 0,20,30,50,75,100,150 mg/l.

[3] = pMOG410 (gus-nptII), Cyanamide 20 mg/l during regeneration, 62 inoculated explants
[4] = pMOG410 (gus-nptII), Cyanamide 30 mg/l during regeneration, 62 inoculated explants
[5] = pMOG410 (gus-nptII), Cyanamide 40 mg/l during regeneration, 62 inoculated explants
[6] = pMOG1156 (cah-gus-nptII), Cyanamide 20 mg/l during regeneration, 48 inoculated explants
[7] = pMOG1156 (cah-gus-nptII), Cyanamide 30 mg/l during regeneration, 48 inoculated explants
[8] = pMOG1156 (cah-gus-nptII), Cyanamide 40 mg/l during regeneration, 48 inoculated explants
[9] = Medium M2/MS/2,4-D, cyanamide 20 mg/l
[10] = Medium M2/MS/2,4-D, cyanamide 30 mg/l
[11] = Medium M2/MS/2,4-D, cyanamide 50 mg/l
[12] = Medium M2/MS/2,4-D, cyanamide 75 mg/l
[13] = Medium M2/MS/2,4-D, cyanamide 100 mg/l
[14] = Medium M2/MS/2,4-D, cyanamide 150 mg/l
[15] = Medium M2/SH/0.5Pic +0.5 2,4-D, cyanamide 20 mg/l
[16] = Medium M2/SH/0.5Pic +0.5 2,4-D, cyanamide 30 mg/l
[17] = Medium M2/SH/0.5Pic +0.5 2,4-D, cyanamide 50 mg/l
[18] = Medium M2/SH/0.5Pic +0.5 2,4-D, cyanamide 75 mg/l
[19] = Medium M2/SH/0.5Pic +0.5 2,4-D, cyanamide 150 mg/l
[20] = pMOG410 (gus-nptII), Kanamycin 50 mg/l during regeneration, 58 inoculated explants
[21] = pMOG1156 (cah-gus-nptII), Kanamycin 50 mg/l during regeneration, 48 inoculated explants

N#CN [Cyanamide]
No. of excised shoots [1, 3]: 48 | No. of gus + shoots [1, 3]: 0 | No. of rooting shoots ([1]; pMOG410 (gus-nptII), Cyanamide 20 mg/l during regeneration, 62 inoculated explants, rooting medium 50 mg/l cyanamide): 0 | No. of excised shoots [1, 4]: 10 | No. of gus + shoots [1, 4]: 0 | No. of rooting shoots ([1]; pMOG410 (gus-nptII), Cyanamide 30 mg/l during regeneration, 62 inoculated explants, rooting medium 50 mg/l cyanamide): 0 | No. of excised shoots [1, 5]: 0 | No. of gus + shoots [1, 5]: 0 | No. of rooting shoots ([1]; pMOG410 (gus-nptII), Cyanamide 40 mg/l during regeneration, 62 inoculated explants, rooting medium 50 mg/l cyanamide): 0 | No. of excised shoots ([1]; pMOG874 (cah-nptII), Cyanamide 20 mg/l during regeneration, 58 inoculated explants): 81 | No. of rooting shoots ([1]; pMOG874 (cah-nptII), Cyanamide 20 mg/l during regeneration, 58 inoculated explants, rooting medium 50 mg/l cyanamide): 2 | No. of excised shoots ([1]; pMOG874 (cah-nptII), Cyanamide 30 mg/l during regeneration, 58 inoculated explants): 40 | No. of rooting shoots ([1]; pMOG874 (cah-nptII), Cyanamide 30 mg/l during regeneration, 58 inoculated explants, rooting medium 50 mg/l cyanamide): 8 | No. of excised shoots ([1]; pMOG874 (cah-nptII), Cyanamide 40 mg/l during regeneration, 58 inoculated explants): 10 | No. of rooting shoots ([1]; pMOG874 (cah-nptII), Cyanamide 40 mg/l during regeneration, 58 inoculated explants, rooting medium 50 mg/l cyanamide): 1 | No. of excised shoots [1, 6]: 56 | No. of gus + shoots [1, 6]: 6 | No. of rooting shoots ([1]; pMOG1156 (cah-gus-nptII), Cyanamide 20 mg/l during regeneration, 48 inoculated explants, rooting medium 50 mg/l cyanamide): 6 | No. of excised shoots [1, 7]: 50 | No. of gus + shoots [1, 7]: 12 | No. of rooting shoots ([1]; pMOG1156 (cah-gus-nptII), Cyanamide 30 mg/l during regeneration, 48 inoculated explants, rooting medium 50 mg/l cyanamide): 12 | No. of excised shoots [1, 8]: 15 | No. of gus + shoots [1, 8]: 2 | No. of rooting shoots ([1]; pMOG1156 (cah-gus-nptII), Cyanamide 40 mg/l during regeneration, 48 inoculated explants, rooting medium 50 mg/l cyanamide): 2 | Concentration up to which there is no significant visual browning of cultures and release of phenolics [2]: > 75 mg/L | inhibition at 20 µg/mL ([2]; 20 mg/l, read-out: Inhibition of the growth of embryogenic callus): 40 to 50% | % Live cells as assessed by FDA [2, 9]: 60% | % Callus Growth [2, 9]: +30% | % Live cells as assessed by FDA [2, 10]: 50% | % Callus Growth [2, 10]: +20% | % Live cells as assessed by FDA [2, 11]: 20% | % Callus Growth [2, 11]: 0% | % Live cells as assessed by FDA [2, 12]: 10% | % Callus Growth [2, 12]: 0% | % Live cells as assessed by FDA [2, 13]: 10% | % Callus Growth [2, 13]: 0% | % Live cells as assessed by FDA [2, 14]: 0% | % Callus Growth [2, 14]: 0% | Embryos Formed (average) [2, 15]: 0 | % Live cells as assessed by FDA [2, 15]: 50% | Embryos Formed (average) [2, 16]: 0 | % Live cells as assessed by FDA [2, 16]: 40% | Embryos Formed (average) [2, 17]: 0 | % Live cells as assessed by FDA [2, 17]: 30% | Embryos Formed (average) [2, 18]: 0 | % Live cells as assessed by FDA [2, 18]: 20% | Embryos Formed (average) ([2]; Medium M2/SH/0.5Pic +0.5 2,4-D, cyanamide 100 mg/l): 0 | Embryos Formed (average) [2, 19]: 0 | % Live cells as assessed by FDA [2, 19]: 0% | Embryogenesis ([2]; lowest concentration tested (20 mg/l)): totally inhibited

NC[C@H]1O[C@H](O[C@H]2[C@H](O)[C@@H](O[C@H]3O[C@H](CO)[C@@H](O)[C@H](N)[C@H]3O)[C@H](N)C[C@@H]2N)[C@H](O)[C@@H](O)[C@@H]1O [Kanamycin]
No. of excised shoots [1, 20]: 24 | No. of gus + shoots [1, 20]: 12 | No. of rooting shoots ([1]; pMOG410 (gus-nptII), Kanamycin 50 mg/l during regeneration, 58 inoculated explants, rooting medium 30 mg/l kanamycin): 13 | No. of excised shoots ([1]; pMOG874 (cah-nptII), Kanamycin 50 mg/l during regeneration, 58 inoculated explants): 34 | No. of rooting shoots ([1]; pMOG874 (cah-nptII), Kanamycin 50 mg/l during regeneration, 58 inoculated explants, rooting medium 30 mg/l kanamycin): 26 | No. of excised shoots [1, 21]: 26 | No. of gus + shoots [1, 21]: 16 | No. of rooting shoots ([1]; pMOG1156 (cah-gus-nptII), Kanamycin 50 mg/l during regeneration, 48 inoculated explants, rooting medium 30 mg/l kanamycin): 16
